The source of these data is patent US20230278969A1, “CERTAIN (2S)-N-[(1S)-1-CYANO-2-PHENYLETHYL]-1,4-OXAZEPANE-2-CARBOXAMIDES AS DIPEPTIDYL PEPTIDASE 1 INHIBITORS” (AstraZeneca AB, priority 2014, published 2023).

For data set [1], the target named is recombinant human (RH) DPP1 (Homo sapiens (Human), UniProt P53634). The data set can be described thus: Test A1: Fluorescence Assay for Recombinant Human (RH) DPP1. The class given is biochemical. Conditions: Test A1 (Examples 1-35); rhDPP1 ~50 pM, 100 µM H-Gly-Arg-AMC, 22° C. The method, then:
Test A1: Fluorescence Assay for Recombinant Human (RH) DPP1
The activity of DPP1 was determined by measuring the enzymatic release of aminomethyl coumarin (AMC) from the peptide substrate (H-Gly-Arg-AMC), which leads to an increase in fluorescence intensity at λex =350 nm and λem =450 nm. The assay was carried out in black 384 well plates in a final volume of 50 µl at 22° C. The assay conditions contained the following: 25 mM piperazine buffer pH 5.0; 50 mM NaCl, 5 mM DTT; 0.01% (v/v) Triton X-100; 100 µMH-Gly-Arg-AMC and rhDPP1 (~50 pM). […] Routinely, inhibitors were pre-incubated with rhDPP1 for 30-60 min prior to the addition of the peptide substrate to start the reaction for a further 60 min at 22° C.

Data set [2] is described as follows: Test B: In-vitro Competitive Aortic Tissue Binding Assay. Conditions: 100 µM compound, competition with [14C]-labelled WO2010/128324 Ex. 3, categories strong binder, medium binder, no binder. On the set-up: species or system Han Wistar rats. Here is the method:
To assist the design of DPP1 inhibitors with a decreased risk of binding to elastin rich tissues, such as the aorta, the in-vitro competitive aortic binding assay disclosed below (Test B) was developed to facilitate the selection process.
Test B: In-vitro Competitive Aortic Tissue Binding Assay
Aortic homogenate was prepared from the thoracic aortae of Han Wistar rats. Freshly isolated thoracic aortae were frozen, and later thawed and stripped of non-elastic material. […] Homogenate concentration was adjusted to 30 mg/mL in Puck’s saline, and aliquots were stored at -80° C. until use. Positive and negative control compounds and test compounds were made up to 100 mM in DMSO, and added to 1 mL aliquots of aortic homogenate in Puck’s saline for a final concentration of 100 µM. Homogenate samples were pre-incubated with test compounds at 37° C., rotating, overnight. [^14C]4-Amino-N-[(1S)-1-cyano-2-(4′-cyanobiphenyl-4-yl)ethyl]tetrahydro-2H-pyran-4-carboxamide was then added to all samples to a final concentration of 100 µM, and samples were incubated at 37° C., rotating, for a further 2 h. Protein was precipitated from each sample by the addition of 10 mL acetone, prechilled to -20° C. Samples were left overnight at -20° C. to allow complete precipitation. […] Precipitate was washed by resuspension in 10 mL 80% methanol in distilled water, and re-pelleted by centrifugation at 4,500 × g at 4° C. for 20 min. […] After final wash, precipitate was air-dried, and dissolved overnight in 1 mL NCSII Tissue Solubiliser. 1 mL aliquots of supernatants were added to 5 mL Ultima Gold scintillation fluid (Perkin Elmer, MA, U.S.A.), and 1 mL solubilised pellets were added to 5 mL Hionic-Fluor scintillation fluid (Perkin Elmer, MA, U.S.A.). Radioactivity of samples was determined on a Beckman LS6500 multipurpose scintillation counter (Beckman Coulter, IN, U.S.A.). […] Duplicate samples were tested for each compound on each experimental occasion, and at least two experiments were run for each test compound. […] 1-way ANOVA and Bonferroni’s multiple comparison tests were performed to calculate significance of differences from vehicle control.

The conditions of data set [3]: QWBA studies, literature (Schmidt et al. 1984); cited from earlier work.
Data set [4] is described as follows: rat quantitative whole-body autoradiography (QWBA) studies. Format: in vivo.

recombinant human (RH) DPP1, sequence (P53634 231-394): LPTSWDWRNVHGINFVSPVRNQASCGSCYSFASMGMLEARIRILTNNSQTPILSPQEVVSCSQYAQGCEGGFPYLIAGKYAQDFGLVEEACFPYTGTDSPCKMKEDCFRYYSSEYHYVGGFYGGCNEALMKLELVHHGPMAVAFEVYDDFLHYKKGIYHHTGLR
recombinant human (RH) DPP1, sequence (P53634 25-143): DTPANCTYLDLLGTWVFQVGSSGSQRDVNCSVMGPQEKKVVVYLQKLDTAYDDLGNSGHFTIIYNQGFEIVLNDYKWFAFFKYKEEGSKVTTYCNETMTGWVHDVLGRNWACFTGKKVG
recombinant human (RH) DPP1, sequence (P53634 395-463): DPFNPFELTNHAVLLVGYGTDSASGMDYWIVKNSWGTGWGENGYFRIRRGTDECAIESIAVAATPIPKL

For `N#Cc1ccc(-c2ccc(C[C@@H](C#N)NC(=O)[C@@H]3CNCCCO3)cc2)cc1` [Example 1, (2S)-N-[(1S)-1-Cyano-2-(4′-cyanobiphenyl-4-yl)ethyl]-1,4-oxazepane-2-carboxamide], the “DPP1 activity, pIC50” value in data set [1] was 7.45.
Take `Cn1c(=O)oc2ccc(-c3ccc(C[C@@H](C#N)NC(=O)[C@@H]4CNCCCO4)cc3)cc21` [Example 2, (2S)-N-{(1S)-1-cyano-2-[4-(3-methyl-2-oxo-2,3-dihydro-1,3-benzoxazol-5-yl)phenyl]ethyl}-1,4-oxazepane-2-carboxamide]: the “Aortic Tissue Binding” value in data set [2] is “No binder”.
Consider `CS(=O)(=O)Oc1cccc(-c2ccc(C[C@@H](C#N)NC(=O)[C@@H]3CNCCCO3)cc2)c1` [Example 4, 4′-[(2S)-2-Cyano-2-{[(2S)-1,4-oxazepan-2-ylcarbonyl] Amino}ethyl] Biphenyl-3-yl methanesulfonate], for which the “DPP1 activity, pIC50” value in data set [1] was found to be 7.1.
On to `Cn1c(=O)oc2ccc(-c3ccc(C[C@@H](C#N)NC(=O)C4(N)CCOCC4)cc3)cc21` [WO2010/128324 (Example 17)], for which the “Aortic Tissue Binding” value in data set [2] is on record as “Strong binder”.
For the compound `CC(c1ccc(Cl)c(Cl)c1)N1N=C(N)CC1=O` (stereo not shown) [muzolimine], the “retention in the aorta” value in data set [3] is listed as “retained selectively in the aorta”.
With `N#Cc1ccc(-c2ccc(C[C@@H](C#N)NC(=O)C3(N)CCOCC3)cc2)cc1` [WO2010/128324 (Ex. 3), 4-amino-N-[(1S)-1-cyano-2-(4′-cyanobiphenyl-4-yl)ethyl]tetrahydro-2H-pyran-4-carboxamide], the “Aortic Tissue Binding” value in data set [2] is “Strong binder (reference)”. Further, the aortic retention result in data set [4] is “high level of aortic retention”.
For the compound `Cc1cc(-c2ccc(C[C@@H](C#N)NC(=O)[C@@H]3CNCCCO3)cc2)cc2c1oc(=O)n2C` [Example 3, (2S)-N-{(1S)-1-Cyano-2-[4-(3,7-dimethyl-2-oxo-2,3-dihydro-1,3-benzoxazol-5-yl)phenyl]ethyl}-1,4-oxazepane-2-carboxamide], the “DPP1 activity, pIC50” value in data set [1] was 7.99.
As to `N#Cc1ccc(-c2ccc(C[C@@H](C#N)NC(=O)[C@@H]3CCCCN3)cc2)cc1` [WO2009/074829 (Example 24)], in data set [2], the “Aortic Tissue Binding” value is listed as “Binder”.
As for `Cn1c(=O)oc2ccc(-c3ccc(C[C@@H](C#N)NC(=O)[C@@H]4CCCCN4)cc3)cc21` [WO2009/074829 (Example 96)], the “Aortic Tissue Binding” value in data set [2] is recorded as “Medium binder”.
